Experimental findings from article PMC5651819, “AtSPX1 affects the AtPHR1–DNA-binding equilibrium by binding monomeric AtPHR1 in solution” (Biochemical Journal, 2017) are described below.

In this experiment the target is T1, GST–AtSPX1 (Arabidopsis thaliana, UniProt Q8LBH4).
T1 construct: gene SPX1; contains degradation products and free GST
T1 sequence (Q8LBH4 1-256): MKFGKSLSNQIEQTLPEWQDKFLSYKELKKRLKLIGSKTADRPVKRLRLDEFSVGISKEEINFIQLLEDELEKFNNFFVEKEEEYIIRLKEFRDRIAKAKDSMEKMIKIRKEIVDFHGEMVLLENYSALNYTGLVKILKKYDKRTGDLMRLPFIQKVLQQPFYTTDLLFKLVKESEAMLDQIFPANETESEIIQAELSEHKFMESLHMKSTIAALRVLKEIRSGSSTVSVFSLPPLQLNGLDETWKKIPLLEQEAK
Briefly: microscale thermophoresis. The following applies: unreliable; data not shown; some Pi binding to free GST, precise affinity could not be determined.

As to `O=P(O)(O)O` [Pi], the Kd is 5 to 10 mM.
